Assay results as given in patent US20040166160A1, “Methods and dosage forms with modified viscosity layers” (priority 2003, published 2004).
Counter-ions that a name gives are not always drawn.

How the values were obtained:
[1] = cited from earlier work
[2] = in vivo; cited from earlier work
[3] = FIG. 6
Source text: FIG. 6 illustrates blood plasma concentrations at various times achieved through various means of delivery. This figure illustrates the time necessary to achieve a particular blood plasma concentration.

[4] = in vivo; cited from earlier work; remark: listed apart in the source

colonic absorption [3]	SMILES	solubility in alcohol ([1]; alcohol)	solubility in hydrocarbon solvents ([1]; hydrocarbon solvents)	solubility in isopropanol ([1]; isopropanol)	solubility in water ([1]; water)	reported side effects [2]	half-life [4] [h]
	CN(C)CCC=C1c2ccccc2C=Cc2ccccc21 [Cyclobenzaprine hydrochloride, cyclobenzaprine hydrochloride]	freely soluble	insoluble	sparingly soluble	freely soluble		
colonic absorption	CN(C)CCC=C1c2ccccc2C=Cc2ccccc21 [cyclobenzaprine]					sedation and dry mouth	24 to 72
